According to PMC6630832, “3-Vinylazetidin-2-Ones: Synthesis, Antiproliferative and Tubulin Destabilizing Activity in MCF-7 and MDA-MB-231 Breast Cancer Cells” (Pharmaceuticals, 2019):
Where two headings read alike, the source gives them in different places.

Key:
Type in all cases: cell-based
[1] = test system: human MCF-7 breast cancer cells; assay: Cell viability (Alamar Blue) antiproliferative assay in MCF-7 cells
Procedure: The human breast carcinoma cell line MCF-7, was purchased from the European Collection of Animal Cell Cultures (ECACC) and was cultured in Eagle’s minimum essential medium with 10% fetal bovine serum, 2 mM L-glutamine and 100 μg/mL penicillin/streptomycin. The medium was supplemented with 1% non-essential amino acids. The human breast carcinoma cell line MDA-MB-231 was purchased from the European Collection of Animal Cell Cultures (ECACC). MDA-MB-231 cells were maintained in Dulbecco’s modified Eagle’s medium (DMEM) supplemeted with 10% (v/v) fetal bovine serum, 2 mM L-glutamine and 100 μg/mL penicillin/streptomycin (complete medium). All media contained 100 U/mL penicillin and 100 μg/mL streptomycin. Triple negative breast cancer Hs578T cells and its invasive variant Hs578Ts(i)8 were obtained as a kind gift from Dr. Susan McDonnell, School of Chemical and Bioprocess Engineering, University College Dublin and were cultured in Dulbecco’s Modified Eagle’s Media (DMEM) with GlutaMAX^TM-I, with the same supplement as for MDA-MB-231 cells in the absence of non-essential amino acids. HEK-293T normal epithelial embryonic kidney cells were cultured in Dulbecco’s Modified Eagle’s Medium (DMEM) with GlutaMAX^TM-I in the absence of non-essential amino acids. K562 and HL-60 cells were originally obtained from the European Collection of Cell Cultures (Salisbury, UK).The K562 cells were derived from a patient in the blast crisis stage of CML HL-60 cells were derive from a patient with acute myeloid leukaemia. Cells were cultured in RPMI-1640 Glutamax medium supplemented with 10% FCS media, and 100 μg/mL penicillin/streptomycin. Cells were maintained at 37 °C in 5% CO2 in a humidified incubator. All cells were sub-cultured three times/week (adherent cells by trypsinisation).
Cells were seeded at a density of 5 × 10^3 cells/well (MCF-7), in triplicate in 96-well plates. After 24 h, cells were then treated with either medium alone, vehicle [1% ethanol (v/v)] or with serial dilutions of CA-4 or β-lactam analogue. Cell viability for MCF-7 and MDA-MB-231 was analysed using the Alamar Blue assay (Invitrogen Corp, Thermo Fisher Scientific, 168 Third Avenue, Waltham, MA, USA) according to the manufacturer’s instructions. After 72 h, Alamar Blue [10% (v/v)] was added to each well and plates were incubated for 3–5 h at 37 °C in the dark. Fluorescence was read using a 96-well fluorimeter with excitation at 530 nm and emission at 590 nm. Results were expressed as percentage viability relative to vehicle control (100%). Dose response curves were plotted and IC50 values (concentration of drug resulting in 50% reduction in cell survival) were obtained using the commercial software package Prism (GraphPad Software, Inc., 2365 Northside, Suite 560, San Diego, CA, USA). Experiments were performed in triplicate on at least three separate occasions.

[2] = test system: NCI 60 cell line panel; assay: NCI60 cell line screen (SRB assay), whole panel or sub-panels
Source text: The results are summarized in Tables S3–S5, Supplementary Information.
Table S5: NCI 60 cell line mean screening results for selected compounds NCI Ref. Compound GI50 TGI LC50 […]
a GI50 and LC50 are the mean concentrations required to inhibit the growth and kill 50 % of the cells over the total NCI 60 cell line panel in the assay respectively. […]
over the total NCI 60 cell line panel.

[3] = test system: COLO 205; assay: NCI60 screen (SRB), Colon Cancer; conditions: Homo sapiens
[4] = test system: HCT-2998; assay: NCI60 screen (SRB), Colon Cancer
[5] = test system: HCT-15; assay: NCI60 screen (SRB), Colon Cancer; conditions: Homo sapiens
[6] = test system: HT29; assay: NCI60 screen (SRB), Colon Cancer; conditions: Homo sapiens, HT-29
[7] = test system: KM12; assay: NCI60 screen (SRB), Colon Cancer; conditions: Homo sapiens
[8] = test system: SW-620; assay: NCI60 screen (SRB), Colon Cancer; conditions: Homo sapiens
[9] = test system: SNB-75; assay: NCI60 screen (SRB), CNS Cancer; conditions: Homo sapiens
[10] = test system: U251; assay: NCI60 screen (SRB), CNS Cancer; conditions: Homo sapiens, U-251
[11] = test system: DU-145; assay: NCI60 screen (SRB), Prostate cancer; conditions: Homo sapiens
[12] = test system: IGROV1; assay: NCI60 screen (SRB), Ovarian cancer; conditions: Homo sapiens, IGROV-1
[13] = test system: OVCAR-4; assay: NCI60 screen (SRB), Ovarian cancer; conditions: Homo sapiens
[14] = test system: 786-0; assay: NCI60 screen (SRB), Renal cancer; conditions: Homo sapiens
[15] = test system: A498; assay: NCI60 screen (SRB), Renal cancer; conditions: Homo sapiens
[16] = test system: ACHN; assay: NCI60 screen (SRB), Renal cancer; conditions: Homo sapiens
[17] = test system: BT-549; assay: NCI60 screen (SRB), Breast cancer; conditions: Homo sapiens
[18] = test system: T-47D; assay: NCI60 screen (SRB), Breast cancer; conditions: Homo sapiens, T47D
[19] = test system: MDA-MB-468; assay: NCI60 screen (SRB), Breast cancer; conditions: Homo sapiens
[20] = test system: RPMI-8226; assay: NCI60 screen (SRB), Leukemia; conditions: Homo sapiens
[21] = Homo sapiens, MCF7, Table S9, MCF-7 IC50 at which the toxicity was estimated, read-out: IC50, MCF-7
[22] = mean over the total NCI 60 cell line panel
[23] = mean over the total NCI 60 cell line panel, read-out: GI50 (mean)
[24] = mean over the total NCI 60 cell line panel, read-out: LC50 (mean)
[25] = over the full 60 cell line panel, read-out: mean GI50
[26] = Homo sapiens, MCF7, 72 h, human MCF-7 breast cancer cells, 72 h, mean ± SEM, read-out: Antiproliferative Activity IC50
[27] = NCI60 Colon Cancer cell line COLO 205, read-out: GI50
[28] = NCI60 Colon Cancer cell line HCT-2998, read-out: GI50
[29] = NCI60 Colon Cancer cell line HCT-15, read-out: GI50
[30] = NCI60 Colon Cancer cell line HT29, read-out: GI50
[31] = NCI60 Colon Cancer cell line KM12, read-out: GI50
[32] = NCI60 Colon Cancer cell line SW-620, read-out: GI50
[33] = NCI60 CNS Cancer cell line SNB-75, read-out: GI50
[34] = NCI60 CNS Cancer cell line U251, read-out: GI50
[35] = NCI60 Prostate cancer cell line DU-145, read-out: GI50
[36] = NCI60 Ovarian cancer cell line IGROV1, read-out: GI50
[37] = NCI60 Ovarian cancer cell line OVCAR-4, read-out: GI50
[38] = NCI60 Renal cancer cell line 786-0, read-out: GI50
[39] = NCI60 Renal cancer cell line A498, read-out: GI50
[40] = NCI60 Renal cancer cell line ACHN, read-out: GI50
[41] = NCI60 Breast cancer cell line BT-549, read-out: GI50
[42] = NCI60 Breast cancer cell line T-47D, read-out: GI50
[43] = NCI60 Breast cancer cell line MDA-MB-468, read-out: GI50
[44] = NCI60 Leukemia cell line RPMI-8226, read-out: GI50
[45] = MCF7, human MCF-7 breast cancer cells, 72 h, mean ± SEM, read-out: Antiproliferative Activity IC50

Row | SMILES | TGI (mean) [2, 22] | GI50 [2, 23] | CC50 [2, 24] | IC50 [1, 26] | GI50 ([2]; 60 cell, read-out: GI50 (mean)) | CC50 ([2]; 60 cell, read-out: LC50 (mean)) | GI50 ([2]; 60 cell, read-out: mean GI50) | GI50 [3, 27] | GI50 [4, 28] | GI50 [5, 29] | GI50 [6, 30] | GI50 [7, 31] | GI50 [8, 32] | GI50 [9, 33] | GI50 [10, 34] | GI50 [11, 35] | GI50 [12, 36] | GI50 [13, 37] | GI50 [14, 38] | GI50 [15, 39] | also measured
1 | COc1ccc(/C=C\c2cc(OC)c(OC)c(OC)c2)cc1O [CA-4, Combretastatin A-4, reference compound] | 10300 nM | 99.3 nM | 85500 nM | – | – | – | – | – | – | – | – | – | – | – | – | – | – | – | – | – | IC50 [1, 21]: 5.2 nM; GI50 [2, 25]: 99 nM
2 | C=CC1C(=O)N(c2cc(OC)c(OC)c(OC)c2)C1c1ccc(OC)c(O)c1 (stereo not drawn) [Compound 7s, 4-[3-Hydroxy-4-methoxyphenyl]-1-(3,4,5-trimethoxyphenyl)-3-vinylazetidin-2-one] | 5890 nM | – | – | 8 ± 0.71 nM | 22.9 nM | 74100 nM | 23 nM | 32.1 nM | 36.4 nM | 18 nM | 429 nM | < 10 nM | < 10 nM | 15.3 nM | 15.6 nM | < 10 nM | < 10 nM | 13.1 nM | 27.3 nM | < 10 nM | IC50 [1, 21]: 1.4 nM; GI50 ([2]; 60 cell): < 10 nM; CC50 ([2]; 60 cell, read-out: LC50): > 100000 nM; GI50 [16, 40]: < 10 nM; GI50 [17, 41]: < 10 nM; GI50 [18, 42]: 29.9 nM; GI50 [19, 43]: < 10 nM
3 | CCC1C(=O)N(c2cc(OC)c(OC)c(OC)c2)C1c1ccc(OC)c(OP(=O)(O)O)c1 (stereo not drawn) [Compound 17c, 5-(3-Ethyl-1-(3,4,5-trimethoxyphenyl)-4-oxoazetidin-2-yl)-2-methoxyphenyl dihydrogen phosphate] | 43650 nM | 138 nM | 85100 nM | 21 ± 1.5 nM | – | – | – | 204 nM | 40.9 nM | 29.6 nM | 356 nM | 22 nM | 37.9 nM | 23.7 nM | 31.3 nM | 41.3 nM | 37.6 nM | 168 nM | 44.5 nM | 12.9 nM | GI50 [2, 25]: 73 nM; GI50 [20, 44]: 48.2 nM; GI50 [16, 40]: 38.5 nM; GI50 [17, 41]: 33.8 nM; GI50 [18, 42]: > 100000 nM; GI50 [19, 43]: 27.6 nM
4 | C=CC1C(=O)N(c2cc(OC)c(OC)c(OC)c2)C1c1ccc(OC)c(OP(=O)(O)O)c1 (stereo not drawn) [Compound 17b, 2-Methoxy-5-(1-(3,4,5-trimethoxyphenyl)-4-oxo-3-vinylazetidin-2-yl)phenyl dihydrogen phosphate] | 36300 nM | 72.4 nM | 87100 nM | 27 ± 2 nM | – | – | – | 1910 nM | 190 nM | 47.4 nM | 2780 nM | 39.1 nM | 55.2 nM | 36.5 nM | 34.3 nM | 59.6 nM | 66.9 nM | 160 nM | 229 nM | 21.8 nM | GI50 [20, 44]: 80.2 nM; GI50 [16, 40]: 64.5 nM; GI50 [17, 41]: 115 nM; GI50 [18, 42]: > 100000 nM; GI50 [19, 43]: 49.6 nM
5 | C=CC1C(=O)N(c2cc(OC)c(OC)c(OC)c2)C1c1ccc(OC)c(N)c1 (stereo not drawn) [Compound 7t, 4-(3-Amino-4-methoxyphenyl)-1-(3,4,5-trimethoxyphenyl)-3-vinylazetidin-2-one] | 50120 nM | – | – | – | 47.9 nM | 89100 nM | 48 nM | – | – | – | – | – | – | – | – | – | – | – | – | – | IC50 [1, 45]: 17 ± 1.8 nM; GI50 ([20]; RPMI-8226): < 10 nM; GI50 ([3]; COLO 205): 17.5 nM; GI50 [4]: 36.8 nM; GI50 ([5]; HCT-15): 28.7 nM; GI50 [6]: 17.9 nM; GI50 ([7]; KM12): 24.2 nM; GI50 ([8]; SW-620): 40.5 nM; GI50 ([9]; SNB-75): 30.1 nM; GI50 [10]: 36.2 nM; GI50 ([11]; DU-145): 36.5 nM; GI50 [12]: 49.6 nM; GI50 ([13]; OVCAR-4): < 10 nM; GI50 ([14]; 786-0): 34.6 nM; GI50 ([15]; A498): 11 nM; GI50 ([16]; ACHN): 37.3 nM; GI50 ([17]; BT-549): 25.9 nM; GI50 ([19]; MDA-MB-468): < 10 nM
6 | C=CC1C(=O)N(c2cc(OC)c(OC)c(OC)c2)C1c1ccc(OC)cc1 (stereo not drawn) [Compound 7h, 4-(4-Methoxyphenyl)-1-(3,4,5-trimethoxyphenyl)-3-vinylazetidin-2-one] | 23440 nM | – | – | – | 52.5 nM | 75900 nM | 52 nM | – | – | – | – | – | – | – | – | – | – | – | – | – | IC50 [1, 45]: 20 ± 2.5 nM; CC50 ([2]; 60 cell, read-out: LC50): > 100000 nM; GI50 ([3]; COLO 205): 20.6 nM; GI50 [4]: 35.3 nM; GI50 ([5]; HCT-15): 37.1 nM; GI50 [6]: 33.7 nM; GI50 ([7]; KM12): 35.1 nM; GI50 ([8]; SW-620): 40.2 nM; GI50 ([9]; SNB-75): 37.2 nM; GI50 [10]: 34.2 nM; GI50 ([11]; DU-145): 29.8 nM; GI50 [12]: 40.4 nM; GI50 ([13]; OVCAR-4): 77.6 nM; GI50 ([14]; 786-0): 33.9 nM; GI50 ([15]; A498): 18.3 nM; GI50 ([16]; ACHN): 61.5 nM; GI50 ([17]; BT-549): 32.5 nM; GI50 [18]: 20500 nM; GI50 ([19]; MDA-MB-468): 22.7 nM
